Source: ChEMBL document CHEMBL5532639, “Heterocyclic pyrimidine derivatives as promising antibacterial agents” (Eur J Med Chem, 2023)
Values after ≈ are worked out from the molar mass of the structure shown.

Columns and labels:
Pseudomonas aeruginosa [1] = assay: Antibacterial activity against Pseudomonas aeruginosa assessed as reduction in bacterial growth; assay type: functional
Escherichia coli [2] = assay: Antibacterial activity against Escherichia coli assessed as reduction in bacterial growth; assay type: functional
Klebsiella sp. = assay: Antibacterial activity against Klebsiella sp. assessed as inhibition of bacterial growth; assay type: functional
Staphylococcus aureus [3] = assay: Antibacterial activity against Staphylococcus aureus assessed as reduction in microbial growth; assay type: functional
Salmonella typhimurium [4] = assay: Antimicrobial activity against Salmonella typhimurium DT104 assessed as inhibition of microbial growth incubated for 18 hrs by CLSI protocol based Mueller-Hinton broth assay; assay type: functional, Salmonella enterica subsp. enterica serovar Typhimurium; conditions: Salmonella enterica
Shigella boydii = assay: Antibacterial activity against Shigella boydii assessed as inhibition of bacterial growth measured after 18 to 20 hrs by broth microdilution method; assay type: functional; conditions: time 18-20 hrs
Enterococcus faecalis = assay: Antimicrobial activity against Enterococcus faecalis assessed as inhibition of microbial growth incubated for 18 hrs by CLSI protocol based Mueller-Hinton broth assay; assay type: functional
Klebsiella pneumoniae = assay: Antimicrobial activity against Klebsiella pneumoniae assessed as inhibition of microbial growth incubated for 18 hrs by CLSI protocol based Mueller-Hinton broth assay; assay type: functional
Staphylococcus aureus [5] = assay: Antimicrobial activity against Staphylococcus aureus assessed as inhibition of microbial growth incubated for 18 hrs by CLSI protocol based Mueller-Hinton broth assay; assay type: functional
Aeromonas hydrophila = assay: Antibacterial activity against Aeromonas hydrophila assessed as inhibition of microbial growth incubated for 24 hrs by CLSI protocol based Mueller-Hinton broth assay; assay type: functional
[6] = system: Salmonella enterica subsp. enterica serovar Paratyphi B; assay: Antibacterial activity against Salmonella paratyphi B CICC 21495 assessed as reduction in […]; assay type: functional; conditions: time lower 48 hrs
[7] = system: Staphylococcus epidermidis; assay: Antimicrobial activity against Staphylococcus epidermidis assessed as inhibition of microbial growth incubated for 18 hrs by CLSI protocol based Mueller-Hinton broth assay; assay type: functional
Edwardsiella tarda = assay: Antimicrobial activity against Edwardsiella tarda assessed as inhibition of microbial growth incubated for 18 hrs by CLSI protocol based Mueller-Hinton broth assay; assay type: functional
Morganella morganii [8] = assay: Antibacterial activity against Morganella morganii UM573 assessed as bacterial growth inhibition incubated for 20 to 22 hrs by CLSI based analysis; assay type: functional; conditions: time 20-22 hrs
Plesiomonas shigelloides = assay: Antibacterial activity against Plesiomonas shigelloides assessed as inhibition of bacterial growth measured after 18 to 20 hrs by broth microdilution method; assay type: functional; conditions: time 18-20 hrs
Pseudomonas aeruginosa [9] = assay: Antimicrobial activity against Pseudomonas aeruginosa assessed as inhibition of microbial growth incubated for 18 hrs by CLSI protocol based Mueller-Hinton broth assay; assay type: functional
Vibrio cholerae [10] = assay: Antibacterial activity against Vibrio cholerae assessed as inhibition of bacterial growth incubated for 24 hrs by broth microdilution method; assay type: functional
Vibrio parahaemolyticus = assay: Antibacterial activity against Vibrio parahaemolyticus assessed as reduction in bacterial growth inhibition measured after 24 hrs by Mueller Hinton Agar dilution method; assay type: functional
Proteus vulgaris = assay: Antimicrobial activity against Proteus vulgaris assessed as microbial growth inhibition incubated for 24 hrs by broth microdilution method; assay type: functional
Vibrio cholerae [11] = assay: Antibacterial activity against Vibrio cholerae assessed as reduction in bacterial growth measured after 18 to 20 hrs by broth microdilution method; assay type: functional; conditions: time 18-20 hrs
Shigella sonnei = assay: Antibacterial activity against Shigella sonnei assessed as inhibition of bacterial growth measured after 18 to 20 hrs by broth microdilution method; assay type: functional; conditions: time 18-20 hrs
Bacillus subtilis [12] = assay: Antibacterial activity against Bacillus subtilis assessed as reduction in bacterial growth incubated for 24 hrs by CLSI protocol based Mueller-Hinton broth assay; assay type: functional
Citrobacter freundii = assay: Antibacterial activity against multidrug-resistant Citrobacter freundii assessed as bacterial growth inhibition incubated for 20 to 22 hrs by CLSI based analysis; assay type: functional; conditions: time 20-22 hrs
Vibrio cholerae [13] = assay: Antibacterial activity against Vibrio cholerae measured after 18 to 20 hrs by broth microdilution method; assay type: functional; conditions: time 18-20 hrs
Enterobacter sp. = assay: Antibacterial activity against Enterobacter sp. assessed as inhibition of bacterial growth; assay type: functional
Morganella morganii [14] = assay: Antibacterial activity against Morganella morganii UM869 incubated for 16 to 18 hrs by broth microdilution method; assay type: functional; conditions: time 16-18 hrs
Providencia rettgeri = assay: Antibacterial activity against Providencia rettgeri assessed as bacterial growth inhibition incubated for 18 hrs by CLSI protocol based Mueller-Hinton broth assay; assay type: functional
Salmonella typhimurium [15] = assay: Antibacterial activity against Salmonella typhimurium DT104 assessed as reduction in bacterial growth inhibition measured after 24 hrs by Mueller Hinton Agar dilution method; assay type: functional, Salmonella enterica subsp. enterica serovar Typhimurium; conditions: Salmonella enterica
Salmonella enterica = assay: Antimicrobial activity against Salmonella enterica assessed as inhibition of microbial growth incubated for 18 hrs by CLSI protocol based Mueller-Hinton broth assay; assay type: functional
Shigella flexneri = assay: Antibacterial activity against Shigella flexneri assessed as inhibition of bacterial growth incubated for 24 hrs by broth microdilution method; assay type: functional
Escherichia coli [16] = assay: Antimicrobial activity against Escherichia coli assessed as inhibition of microbial growth incubated for 18 hrs by CLSI protocol based Mueller-Hinton broth assay; assay type: functional
Salmonella paratyphi = assay: Antibacterial activity against Salmonella paratyphi A CICC 21501 incubated overnight by standard microtiter dilution method; assay type: functional, Salmonella enterica subsp. enterica serovar Paratyphi A; conditions: Salmonella enterica
Bacillus subtilis [17] = assay: Antibacterial activity against Bacillus subtilis assessed as reduction in microbial growth by measuring zone of inhibition; assay type: functional
Bacillus subtilis [18] = assay: Antibacterial activity against Bacillus subtilis ATCC 465 assessed as reduction in bacterial growth measured after 24 hrs by Mueller-Hinton broth assay; assay type: functional
Pseudomonas aeruginosa [19] = assay: Antibacterial activity against Pseudomonas aeruginosa; assay type: functional
Pseudomonas aeruginosa [20] = assay: Antibacterial activity against Pseudomonas aeruginosa ATCC 85327 assessed as reduction in bacterial growth measured after 24 hrs by Mueller-Hinton broth assay; assay type: functional

With `NC(=O)N/N=C/c1ccc([N+](=O)[O-])o1` [NITROFURAZONE] as the compound, how does the MIC (Pseudomonas aeruginosa [1]) read?
The MIC was 6 µg/mL (≈ 0.0303 mM).

And the MIC (Escherichia coli [2])?
Its MIC is 12.5 µg/mL (≈ 0.0631 mM).

And the MIC (Klebsiella sp.)?
The MIC was 12.5 µg/mL (≈ 0.0631 mM).

And the MIC (Staphylococcus aureus [3])?
Its MIC is 12.5 µg/mL.

What does the source list for `Cc1cc(NS(=O)(=O)c2ccc(N)cc2)no1` [SULFAMETHOXAZOLE]?
MIC (Salmonella typhimurium [4]): 2500 µg/mL; MIC (Shigella boydii): 2500 µg/mL (≈ 9.87 mM); MIC (Enterococcus faecalis): 5000 µg/mL; MIC (Klebsiella pneumoniae): 2500 µg/mL; MIC (Staphylococcus aureus [5]): 5000 µg/mL; MIC (Aeromonas hydrophila): 2500 µg/mL; MIC [6]: 5000 µg/mL (≈ 19.7 mM); MIC [7]: 2500 µg/mL; MIC (Edwardsiella tarda): 5000 µg/mL; MIC (Morganella morganii [8]): 5000 µg/mL (≈ 19.7 mM); MIC (Plesiomonas shigelloides): 5000 µg/mL (≈ 19.7 mM); MIC (Pseudomonas aeruginosa [9]): 78.1 µg/mL; MIC (Vibrio cholerae [10]): > 5000 µg/mL; MIC (Vibrio parahaemolyticus): 1250 µg/mL (≈ 4.94 mM); MIC (Proteus vulgaris): 2500 µg/mL (≈ 9.87 mM); MIC (Vibrio cholerae [11]): 5000 µg/mL (≈ 19.7 mM); MIC (Shigella sonnei): 2500 µg/mL (≈ 9.87 mM); MIC (Bacillus subtilis [12]): 5000 µg/mL (≈ 19.7 mM); MIC (Citrobacter freundii): 5000 µg/mL (≈ 19.7 mM); MIC (Vibrio cholerae [13]): 312 µg/mL (≈ 1.23 mM); MIC (Enterobacter sp.): 1250 µg/mL (≈ 4.94 mM); MIC (Morganella morganii [14]): 2500 µg/mL (≈ 9.87 mM); MIC (Providencia rettgeri): 2500 µg/mL (≈ 9.87 mM); MIC (Salmonella typhimurium [15]): 5000 µg/mL (≈ 19.7 mM); MIC (Salmonella enterica): 2500 µg/mL; MIC (Shigella flexneri): 2500 µg/mL (≈ 9.87 mM); MIC (Escherichia coli [16]): 2500 µg/mL; MIC (Salmonella paratyphi): 2500 µg/mL (≈ 9.87 mM)

For GENTAMICIN, which inhibition zone (IZ) (Bacillus subtilis [17]) is on record?
The inhibition zone (IZ) was 24 mm.

What about the MIC (Bacillus subtilis [18]) of the same compound?
Its MIC is 0.125 µg/mL.

And the MIC (Pseudomonas aeruginosa [19])?
The MIC was 0.98 µg/mL.

And the MIC (Pseudomonas aeruginosa [20])?
The MIC was 1 µg/mL.
